Values joined by “and” are separate entries in the source; they are usually repeats but may differ in a detail not shown here. Equal entries are not always repeated.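 Where inhibition never reached the appropriate level, the endpoint shown equals the highest concentration tested. Otherwise, values were interpolated linearly from a five-concentration, 48-hour dose response in 96-well plates. The concentration for 50% growth inhibition is given as GI50. TGI denotes the concentration required for complete inhibition of growth.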
Tests used:
Assay in all cases: inhibition of tumour cell growth, NCI panel, 48 h
OVCAR-8 ovarian = test system: OVCAR-8 ovarian
SK-MEL-28 melanoma = test system: SK-MEL-28 melanoma
OVCAR-3 ovarian = test system: OVCAR-3 ovarian
SR leukemia = test system: SR leukemia
PC-3 prostate = test system: PC-3 prostate
SF-295 CNS = test system: SF-295 CNS
786-0 renal = test system: 786-0 renal
MCF7 breast = test system: MCF7 breast
HT29 colon = test system: HT29 colon
LOX IMVI melanoma = test system: LOX IMVI melanoma

Row | SMILES | GI50 (OVCAR-8 ovarian) | TGI (OVCAR-8 ovarian) | GI50 (SK-MEL-28 melanoma) | TGI (SK-MEL-28 melanoma) | GI50 (OVCAR-3 ovarian) | TGI (OVCAR-3 ovarian) | GI50 (SR leukemia) | TGI (SR leukemia) | GI50 (PC-3 prostate) | TGI (PC-3 prostate) | GI50 (SF-295 CNS) | TGI (SF-295 CNS) | GI50 (786-0 renal) | TGI (786-0 renal) | GI50 (MCF7 breast) | TGI (MCF7 breast) | GI50 (HT29 colon) | TGI (HT29 colon) | GI50 (LOX IMVI melanoma) | TGI (LOX IMVI melanoma)
1 | O=c1cc(N/N=C/c2ccc(F)cc2)c2cc(Cl)ccc2[nH]1 | 19.8 µM | > 100 µM | 19.8 µM | > 100 µM | 24.8 µM | > 100 µM | 24.5 µM | 85.6 µM | 8.41 µM | 96.3 µM | 21.9 µM | > 100 µM | 26.3 µM | > 100 µM | 15.3 µM | > 100 µM | 23.1 µM | > 100 µM | 25.3 µM | > 100 µM
2 | CC1=Nc2ccccc2/C1=C\c1c(C)[nH]c2ccccc12 |  | 27 µM |  | 37.9 µM |  | 34.8 µM |  | 47.5 µM |  | 39.2 µM |  | 43 µM |  | 25.8 µM |  | 18.3 µM |  | 25.4 µM |  | 62.4 µM
3 | CSCCCNC(=O)c1ccc2c(c1)/C(=C/c1[nH]c(C)cc1C)C(=O)N2 | 1.95 µM | > 100 µM | 1.65 µM | > 100 µM | 1.98 µM | > 100 µM | 0.476 µM | 61.4 µM | 0.647 µM | > 100 µM | 2.15 µM | > 100 µM | 1.93 µM | > 100 µM | 4.05 µM | > 100 µM | 4.95 µM | > 100 µM | 1.02 µM | > 100 µM
4 | O=c1[nH]c2nc(NC3CCOCC3)ncc2cc1Oc1ccc(F)cc1F | > 25 µM | > 25 µM | > 25 µM | > 25 µM | > 25 µM | > 25 µM | > 25 µM | > 25 µM | > 25 µM | > 25 µM | > 25 µM | > 25 µM | > 25 µM | > 25 µM | > 25 µM | > 25 µM | > 25 µM | > 25 µM | > 25 µM | > 25 µM
5 | CC(C)=CCC(OC(=O)C=C(C)C)C1=CC(=O)c2c(O)ccc(O)c2C1=O (stereo not drawn) | 2.27 µM | 7.19 µM and 2.98 µM | 1.01 µM | 2.52 µM and 2.67 µM | 0.5 µM | 2.07 µM and 2.62 µM | 0.123 µM | > 100 µM | 1.55 µM | 8.74 µM | 2.15 µM | 20.9 µM and 6.13 µM | 2.59 µM | 6.86 µM | 2.09 µM and 0.877 µM | 7.86 µM and 2.93 µM | 2.49 µM | 8.41 µM and 4.43 µM |  | 0.894 µM and 3.07 µM
6 | O=C(Oc1ccc(CO[N+](=O)[O-])cc1)c1ccccc1 | 0.153 µM | 0.288 µM | 0.171 µM | 0.332 µM | 0.153 µM | 0.295 µM | 0.115 µM | 0.542 µM | 0.13 µM | 0.301 µM | 0.194 µM | 0.631 µM | 0.0945 µM | 0.235 µM | 0.194 µM | 0.722 µM | 0.136 µM | 0.27 µM | 0.163 µM | 0.316 µM
7 | Cc1cc(O)c(C2=NN(c3ccc(S(N)(=O)=O)cc3)C(c3ccc(Cl)cc3)C2)c(C)c1Cl (stereo not drawn) | 5.75 µM | 21.6 µM | 11.7 µM | 23.9 µM | 4.21 µM | 15.7 µM | 1.28 µM | 5.02 µM | 4.44 µM | 16.8 µM | 16 µM | 31.6 µM | 4.97 µM | 17.4 µM | 2.01 µM | 10.5 µM | 3.3 µM | 11 µM | 2.34 µM | 6.98 µM
8 | C=C1C(=O)OC2CC(C)C3CC(O)OC(OCC)C3(C)CC12 (stereo not drawn) |  | 31.4 µM |  | 27.5 µM |  | 31.3 µM |  | > 63.1 µM |  | 45.9 µM |  | 90.6 µM |  | 25.1 µM |  | 26.7 µM |  | 38.5 µM |  | 17.4 µM
9 | Cc1cc(N=C2C=C(Br)C(=O)C(Br)=C2)cc(CN(CC(=O)O)CC(=O)O)c1O |  | > 100 µM |  | > 100 µM |  | > 100 µM |  | > 100 µM |  | > 100 µM |  | > 100 µM |  | > 100 µM |  | > 100 µM |  | > 100 µM |  | 
10 | OCc1ccc(-c2cscc2-c2ccc(CO)o2)o1 | 29.9 µM | > 100 µM | > 100 µM | > 100 µM | 4.04 µM | 30.6 µM | > 100 µM | > 100 µM | > 75 µM | > 100 µM | 0.923 µM | 20.3 µM | > 33.8 µM | > 100 µM | 0.57 µM | 25.1 µM | 7.03 µM | > 100 µM | > 100 µM | > 100 µM
11 | C1=C2CCCC3=Cc4ccccc4OC23Oc2ccccc21 | 4.04 µM | > 100 µM | 5.22 µM | > 100 µM | 3.06 µM | > 100 µM | 2.82 µM | > 100 µM | 4 µM | > 100 µM | 3.99 µM | > 100 µM | 6.41 µM | > 100 µM | 3.03 µM | 60.6 µM | 3.52 µM | 17.9 µM | 3.88 µM | 28 µM
12 | C#Cc1nc2ccccc2c(=O)[nH]1 | 0.897 µM | 8.19 µM | 0.861 µM | 3.42 µM | 0.262 µM | 0.643 µM | 0.311 µM | 2.6 µM | 0.674 µM | 2.54 µM | 3.72 µM | 20.2 µM | 0.582 µM | 2.12 µM | 0.282 µM | 2.75 µM | 0.428 µM | 1.64 µM | 0.168 µM | 0.315 µM
13 | c1cncc(CNCc2cccnc2)c1 |  | > 100 µM |  | > 100 µM |  | > 100 µM |  | > 100 µM |  | > 100 µM |  | > 100 µM |  | > 100 µM |  | > 100 µM |  | > 100 µM |  | > 100 µM
14 | Cc1nc2c(n1C)C(=O)c1ccccc1C2=O | > 100 µM | > 100 µM | > 100 µM | > 100 µM | 25.2 µM | 68.6 µM | 48.9 µM | > 100 µM | 63.9 µM | > 100 µM | 10.8 µM | 72.3 µM | > 100 µM | > 100 µM | 46.1 µM | > 100 µM | 37.2 µM | > 100 µM | 38.5 µM | > 100 µM

Source: PubChem BioAssay (NCI)
